Data from the SangsterLogP compilation.

Test: method code SF-AS, from DOI: 10.1002/zfch.19780180919

SMILES | logP
NNC(=O)c1ccc(N)cc1 | -0.75
NNC(=O)c1ccc(O)cc1 | -0.33
NNC(=O)c1ccccc1N | -0.18
NNC(=O)c1ccc(Cl)cc1 | 1.12
NNC(=O)c1ccccc1[N+](=O)[O-] | -0.54
NNC(=O)c1ccccc1Cl | 0.14
COc1ccccc1C(=O)NN | 0.25
COc1cccc(C(=O)NN)c1 | 0.4
NNC(=O)c1ccccc1O | 0.6
Cc1ccccc1C(=O)NN | 0.22
NNC(=O)c1cccc([N+](=O)[O-])c1 | 0.23
NNC(=O)c1ccccc1Br | 0.26

Continued, values first:

logP | SMILES
1.18 | NNC(=O)c1cccc(Cl)c1
1.53 | NNC(=O)c1cccc(I)c1
0.47 | NNC(=O)c1ccccc1I
1.28 | NNC(=O)c1ccc(Br)cc1
0.73 | Cc1ccc(C(=O)NN)cc1
0.35 | NNC(=O)c1ccc([N+](=O)[O-])cc1
1.55 | NNC(=O)c1ccc(I)cc1
-0.08 | NNC(=O)c1cccc(O)c1
0.25 | COc1ccc(C(=O)NN)cc1
0.74 | Cc1cccc(C(=O)NN)c1
-0.86 | NNC(=O)c1cccc(N)c1
1.26 | NNC(=O)c1cccc(Br)c1
